Measurements: ChEMBL document CHEMBL4699632, “Discovery of polypodiside as a Keap1-dependent Nrf2 activator attenuating oxidative stress and accumulation of extracellular matrix in glomerular mesangial cells under high glucose” (Bioorg Med Chem, 2020)
Active and inactive are the calls of the source. The calls are words filed in the database; no cut-off is given here.

Columns and labels:
[1] = tested on: Glomerular mesangial cell; assay: Suppression of high glucose-induced extracellular matrix accumulation in human glomerular mesangial cells assessed as decrease in TGFbeta1 secretion by ELISA; format: functional, tissue-based; settings: dose microM 0.1-10
[2] = Antioxidant activity against high glucose-induced oxidative stress in human glomerular mesangial cells assessed as effect on intracellular ROS level at 0.1 uM after 20 mins by DCFH-DA staining based fluorescence assay (reference value: 361 +/- 16.7 %); format: functional, Glomerular mesangial cell
[3] = Suppression of high glucose-induced extracellular matrix accumulation in human glomerular mesangial cells assessed as effect on TGFbeta1 secretion at 0.1 uM by ELISA (reference value: 312.7 +/- 18.2 %); format: functional; settings: Glomerular mesangial cell
[4] = Antioxidant activity against high glucose-induced oxidative stress in human glomerular mesangial cells assessed as effect on intracellular MDA level at 0.1 uM after 10 mins by thiobarbituric acid based absorbance analysis (reference value: 216 +/- 17.3 %); format: functional, Glomerular mesangial cell
[5] = tested on: Glomerular mesangial cell; assay: Suppression of high glucose-induced extracellular matrix accumulation in human glomerular mesangial cells assessed as reduction in laminin level by ELISA; format: functional, tissue-based; settings: dose microM 0.1-10
[6] = tested on: Glomerular mesangial cell; assay: Effect on high glucose-induced extracellular matrix accumulation in human glomerular mesangial cells transfected with Nrf2-siRNA assessed as decrease in collagen 4 level at 10 uM; format: functional, tissue-based
[7] = Antioxidant activity against high glucose-induced oxidative stress in human glomerular mesangial cells assessed as effect on SOD activity at 10 uM by colorimetric assay relative to control; format: functional, Glomerular mesangial cell
[8] = target: T1, Nuclear factor erythroid 2-related factor 2 (Homo sapiens) (UniProt Q16236); assay: Activation of Nrf2 in human glomerular mesangial cells assessed as increase in nuclear Nrf2 expression at 0.1 to 10 uM under high glucose condition by Western blot analysis; settings: Glomerular mesangial cell, filed as activator, dose microM 0.1-10
T1 sequence (whole entry): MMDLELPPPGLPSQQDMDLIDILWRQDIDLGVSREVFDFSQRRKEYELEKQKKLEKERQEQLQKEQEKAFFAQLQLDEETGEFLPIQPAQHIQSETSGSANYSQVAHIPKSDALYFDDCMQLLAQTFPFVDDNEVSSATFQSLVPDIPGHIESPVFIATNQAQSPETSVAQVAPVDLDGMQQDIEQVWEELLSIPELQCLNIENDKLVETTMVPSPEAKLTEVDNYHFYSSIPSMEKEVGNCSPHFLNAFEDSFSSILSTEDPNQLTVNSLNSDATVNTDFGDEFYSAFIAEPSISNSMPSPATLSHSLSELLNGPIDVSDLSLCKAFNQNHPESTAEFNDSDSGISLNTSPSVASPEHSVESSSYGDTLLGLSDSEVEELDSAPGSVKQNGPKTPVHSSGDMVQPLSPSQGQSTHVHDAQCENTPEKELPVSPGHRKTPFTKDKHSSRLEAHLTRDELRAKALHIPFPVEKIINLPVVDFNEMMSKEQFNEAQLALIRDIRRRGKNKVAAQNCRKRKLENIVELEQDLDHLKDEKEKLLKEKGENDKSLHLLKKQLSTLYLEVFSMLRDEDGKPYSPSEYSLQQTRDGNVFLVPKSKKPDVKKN

[9] = Antioxidant activity against high glucose-induced oxidative stress in human glomerular mesangial cells assessed as effect on intracellular ROS level at 10 uM after 20 mins by DCFH-DA staining based fluorescence assay (reference value: 361 +/- 16.7 %); format: functional, Glomerular mesangial cell
[10] = Suppression of high glucose-induced extracellular matrix accumulation in human glomerular mesangial cells assessed as laminin level at 0.1 uM by ELISA (reference value: 183.8 +/- 9.3 %); format: functional; settings: Glomerular mesangial cell
[11] = Cytotoxicity against human glomerular mesangial cells assessed as effect on cell viability at 400 uM after 1 hr by CCK8 assay; format: cell-based
[12] = target: T1, Nuclear factor erythroid 2-related factor 2 (Homo sapiens); assay: Activation of Nrf2 in human glomerular mesangial cells transfected with ARE luciferase reporter plasmid assessed as increase in ARE luciferase activity at 0.1 to 10 uM under high glucose condition by dual luciferase reporter gene assay; settings: Glomerular mesangial cell, filed as activator, dose microM 0.1-10
[13] = Antioxidant activity against high glucose-induced oxidative stress in human glomerular mesangial cells assessed as effect on CAT activity at 0.1 uM by colorimetric assay relative to control; format: functional, Glomerular mesangial cell
[14] = tested on: Glomerular mesangial cell; assay: Cytoprotective activity against high glucose-induced self-limited proliferation in human glomerular mesangial cells at 0.1 to 10 uM measured after 3 hrs under high glucose condition by BrdU incorporation assay; format: functional, tissue-based; settings: dose microM 0.1-10, time 3.0 hrs
[15] = tested on: Glomerular mesangial cell; assay: Effect on high glucose-induced extracellular matrix accumulation in human glomerular mesangial cells transfected with Nrf2-siRNA assessed as decrease in laminin level at 10 uM; format: functional, tissue-based
[16] = Suppression of high glucose-induced extracellular matrix accumulation in human glomerular mesangial cells assessed as effect on TGFbeta1 secretion at 10 uM by ELISA (reference value: 312.7 +/- 18.2 %); format: functional; settings: Glomerular mesangial cell
[17] = Antioxidant activity against high glucose-induced oxidative stress in human glomerular mesangial cells assessed as effect on intracellular MDA level at 1 uM after 10 mins by thiobarbituric acid based absorbance analysis (reference value: 216 +/- 17.3 %); format: functional, Glomerular mesangial cell
[18] = target: T1, Nuclear factor erythroid 2-related factor 2 (Homo sapiens); assay: Activation of Nrf2 in human glomerular mesangial cells assessed as increase in Nrf2 level at 0.1 to 10 uM under high glucose condition; format: tissue-based; settings: Glomerular mesangial cell, filed as activator, dose microM 0.1-10
[19] = tested on: Glomerular mesangial cell; assay: Effect on high glucose-induced extracellular matrix accumulation in human glomerular mesangial cells transfected with Nrf2-siRNA assessed as decrease in fibronectin level at 10 uM; format: functional, tissue-based
[20] = Suppression of high glucose-induced extracellular matrix accumulation in human glomerular mesangial cells assessed as collagen 4 level at 0.1 uM by ELISA (reference value: 221.7 +/- 14.1 %); format: functional; settings: Glomerular mesangial cell
[21] = tested on: Glomerular mesangial cell; assay: Effect on high glucose-induced oxidative stress in human glomerular mesangial cells transfected with Nrf2-siRNA assessed as decrease in intracellular MDA level at 10 uM; format: functional
[22] = Suppression of high glucose-induced extracellular matrix accumulation in human glomerular mesangial cells assessed as laminin level at 1 uM by ELISA (reference value: 183.8 +/- 9.3 %); format: functional; settings: Glomerular mesangial cell
[23] = Suppression of high glucose-induced extracellular matrix accumulation in human glomerular mesangial cells assessed as laminin level at 10 uM by ELISA (reference value: 183.8 +/- 9.3 %); format: functional; settings: Glomerular mesangial cell
[24] = Suppression of high glucose-induced extracellular matrix accumulation in human glomerular mesangial cells assessed as fibronectin level at 1 uM by ELISA (reference value: 319.6 +/- 12.4 %); format: functional; settings: Glomerular mesangial cell
[25] = tested on: Glomerular mesangial cell; assay: Increase in total Nrf2 expression in human glomerular mesangial cells at 10 uM under high glucose condition by Western blot analysis; format: functional, tissue-based; settings: dose microM 0.1-10
[26] = Antioxidant activity against high glucose-induced oxidative stress in human glomerular mesangial cells assessed as effect on intracellular MDA level at 10 uM after 10 mins by thiobarbituric acid based absorbance analysis (reference value: 216 +/- 17.3 %); format: functional, Glomerular mesangial cell
[27] = Suppression of high glucose-induced extracellular matrix accumulation in human glomerular mesangial cells assessed as effect on TGFbeta1 secretion at 1 uM by ELISA (reference value: 312.7 +/- 18.2 %); format: functional; settings: Glomerular mesangial cell
[28] = target: Kelch-like ECH-associated protein 1 (Homo sapiens) (UniProt Q14145); assay: Binding affinity to Keap1 in human glomerular mesangial cells assessed as disruption of Keap1-Nrf2 complex formation causing decrease in Keap1 level at 10 uM measured after overnight by co-immunoprecipitation analysis; format: tissue-based; settings: Glomerular mesangial cell, filed as activator, time 12.0 hrs
Kelch-like ECH-associated protein 1 (Homo sapiens), sequence (Q14145 whole entry): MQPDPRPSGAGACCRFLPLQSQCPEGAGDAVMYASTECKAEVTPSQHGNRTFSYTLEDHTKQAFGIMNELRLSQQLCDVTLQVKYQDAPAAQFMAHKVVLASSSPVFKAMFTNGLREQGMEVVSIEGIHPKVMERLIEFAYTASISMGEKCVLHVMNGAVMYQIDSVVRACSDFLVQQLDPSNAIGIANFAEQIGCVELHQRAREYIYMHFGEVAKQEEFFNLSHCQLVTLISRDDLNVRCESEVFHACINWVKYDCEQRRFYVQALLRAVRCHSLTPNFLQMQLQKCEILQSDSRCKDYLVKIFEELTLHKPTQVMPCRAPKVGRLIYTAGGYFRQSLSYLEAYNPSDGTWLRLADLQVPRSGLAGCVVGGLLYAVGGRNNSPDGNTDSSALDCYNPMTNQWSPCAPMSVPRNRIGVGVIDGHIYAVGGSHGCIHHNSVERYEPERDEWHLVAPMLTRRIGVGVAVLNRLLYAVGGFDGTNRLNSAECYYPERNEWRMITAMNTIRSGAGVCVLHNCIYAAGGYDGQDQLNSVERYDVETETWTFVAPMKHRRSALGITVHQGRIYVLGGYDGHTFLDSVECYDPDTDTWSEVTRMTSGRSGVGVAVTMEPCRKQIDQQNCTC

[29] = tested on: Glomerular mesangial cell; assay: Suppression of high glucose-induced extracellular matrix accumulation in human glomerular mesangial cells assessed as decrease in CTGF secretion by ELISA; format: functional, tissue-based; settings: dose microM 0.1-10
[30] = Antioxidant activity against high glucose-induced oxidative stress in human glomerular mesangial cells assessed as effect on intracellular ROS level at 1 uM after 20 mins by DCFH-DA staining based fluorescence assay (reference value: 361 +/- 16.7 %); format: functional, Glomerular mesangial cell
[31] = tested on: Glomerular mesangial cell; assay: Suppression of high glucose-induced extracellular matrix accumulation in human glomerular mesangial cells assessed as reduction in fibronectin level by ELISA; format: functional, tissue-based; settings: dose microM 0.1-10
[32] = Suppression of high glucose-induced extracellular matrix accumulation in human glomerular mesangial cells assessed as fibronectin level at 0.1 uM by ELISA (reference value: 319.6 +/- 12.4 %); format: functional; settings: Glomerular mesangial cell
[33] = target: T1, Nuclear factor erythroid 2-related factor 2 (Homo sapiens); assay: Activation of Nrf2 in human glomerular mesangial cells assessed as translocation of Nrf2 from cytoplasm to nucleus at 0.1 to 10 uM under high glucose condition by DAPI staining based fluorescence microscopy analysis; format: tissue-based; settings: Glomerular mesangial cell, filed as activator, dose microM 0.1-10
[34] = Suppression of high glucose-induced extracellular matrix accumulation in human glomerular mesangial cells assessed as collagen 4 level at 1 uM by ELISA (reference value: 221.7 +/- 14.1 %); format: functional; settings: Glomerular mesangial cell
[35] = Antioxidant activity against high glucose-induced oxidative stress in human glomerular mesangial cells assessed as effect on CAT activity at 10 uM by colorimetric assay relative to control; format: functional, Glomerular mesangial cell
[36] = Suppression of high glucose-induced extracellular matrix accumulation in human glomerular mesangial cells assessed as collagen 4 level at 10 uM by ELISA (reference value: 221.7 +/- 14.1 %); format: functional; settings: Glomerular mesangial cell
[37] = Suppression of high glucose-induced extracellular matrix accumulation in human glomerular mesangial cells assessed as fibronectin level at 10 uM by ELISA (reference value: 319.6 +/- 12.4 %); format: functional; settings: Glomerular mesangial cell
[38] = Suppression of high glucose-induced extracellular matrix accumulation in human glomerular mesangial cells assessed as effect on CTGF secretion at 10 uM by ELISA (reference value: 267.7 +/- 21.3 %); format: functional; settings: Glomerular mesangial cell
[39] = Antioxidant activity against high glucose-induced oxidative stress in human glomerular mesangial cells assessed as effect on CAT activity at 1 uM by colorimetric assay relative to control; format: functional, Glomerular mesangial cell
[40] = tested on: Glomerular mesangial cell; assay: Suppression of high glucose-induced extracellular matrix accumulation in human glomerular mesangial cells assessed as reduction in collagen 4 level by ELISA; format: functional, tissue-based; settings: dose microM 0.1-10
[41] = Antioxidant activity against high glucose-induced oxidative stress in human glomerular mesangial cells assessed as effect on SOD activity at 0.1 uM by colorimetric assay relative to control; format: functional, Glomerular mesangial cell
[42] = tested on: Glomerular mesangial cell; assay: Cytoprotective activity against high glucose-induced decreased cell viability in human glomerular mesangial cells at 0.1 uM after 1 hr by CCK8 assay; format: functional, tissue-based
[43] = Antioxidant activity against high glucose-induced oxidative stress in human glomerular mesangial cells assessed as effect on SOD activity at 1 uM by colorimetric assay relative to control; format: functional, Glomerular mesangial cell
[44] = tested on: Glomerular mesangial cell; assay: Effect on high glucose-induced oxidative stress in human glomerular mesangial cells transfected with Nrf2-siRNA assessed as decrease in intracellular ROS level at 10 uM; format: functional, tissue-based

O=C(O)/C=C/c1cc(OC(=O)/C=C/c2ccc(O[C@@H]3O[C@H](CO)[C@@H](O)[C@H](O)[C@H]3O)cc2)cc(O[C@@H]2O[C@H](CO)[C@@H](O)[C@H](O)[C@H]2O)c1
inhibition [1]: Dose-dependent effect
Activity [2]: 323%
level, % of control at 0.1 µM [3]: 262%
Activity [4]: 183.9%
inhibition [5]: Dose-dependent effect
Activity [6]: inactive
Activity [7]: 306.3%
Activity [8]: Active
Activity [9]: 190.8%
level, % of control at 0.1 µM [10]: 163%
Activity [11]: Non-Toxic
Activity [12]: Active
Activity [13]: 144.6%
Activity [14]: Active
Activity [15]: inactive
level, % of control at 10 µM [16]: 140%
Activity [17]: 163.7%
Activity [18]: Active
Activity [19]: inactive
level, % of control at 0.1 µM [20]: 193%
Activity [21]: inactive
level, % of control at 1 µM [22]: 148%
level, % of control at 10 µM [23]: 124%
level, % of control at 1 µM [24]: 246%
Activity [25]: Active
Activity [26]: 135.9%
level, % of control at 1 µM [27]: 213%
Activity [28]: Active
inhibition [29]: Dose-dependent effect
Activity [30]: 287.2%
inhibition [31]: Dose-dependent effect
level, % of control at 0.1 µM [32]: 282%
Activity [33]: Active
level, % of control at 1 µM [34]: 163%
Activity [35]: 233.4%
level, % of control at 10 µM [36]: 129%
level, % of control at 10 µM [37]: 179%
level, % of control at 10 µM [38]: 119%
Activity [39]: 188.5%
inhibition [40]: Dose-dependent effect
Activity [41]: 155.7%
Activity [42]: Active
Activity [43]: 229.2%
Activity [44]: inactive
